Data taken from patent publication US20250296938A1, “Compounds that Interact with the Ras Superfamily for the Treatment of Cancers, Inflammatory Diseases, Rasopathies, and Fibrotic Disease” (SHY Therapeutics, LLC, priority 2018, published 2025).
Like-named read-outs stand apart in the source and are kept apart here.

Experiments:
Assay in all cases: Ras GTP binding domain inhibition assay (Cy3-GTP/Cy5-GTP competition)
KRas G12D mutant = target: T1, KRas G12D mutant (Homo sapiens, UniProt P01116, G12D)
T1 construct: fused on or other part: His tag, used for capture on nickel-coated plates
Procedure, shortened: (§1)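 First, His-tagged protein is coated on nickel wells overnight at 4 °C. Next, compound (20 μM single point or serial dilution) is added for 3 h at room temperature, with or without Sos exchange factor in the last hour. Finally, 100 nM labelled GTP binds for 45 min and retained signal is measured.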

Rho-A = Rho-A (Homo sapiens, UniProt P61586)
Procedure, shortened: as §1

Rac-1 = Rac-1 (Homo sapiens, UniProt P63000)
Procedure, shortened: as §1

KRas G12C mutant = system: KRas G12C mutant; set-up: species or system human; conditions: 20 μM; for KRas G12C mutant + SOS: % inh.: with SOS (Table 7A); for KRas G12C mutant: % inh.: without SOS (Table 7A)
Procedure, shortened: as §1

KRas Q61H mutant = system: KRas Q61H mutant; set-up: species or system human; conditions: 20 μM; for KRas Q61H mutant + SOS: % inh.: with SOS (Table 7A); for KRas Q61H mutant: % inh.: without SOS (Table 7A)
Procedure, shortened: as §1

KRas wild type = system: KRas wild type; set-up: species or system human; conditions: 20 μM; for KRas wild type + SOS: % inh.: with SOS (Table 7A); for KRas wild type % inh.: without SOS (Table 7A)
Procedure, shortened: as §1

[1] = at 20 μM, with SOS, read-out: KRas G12D mutant + SOS: % inh.
[2] = at 20 μM, without SOS, read-out: KRas G12D mutant: % inh.
[3] = with SOS, read-out: Rho-A + SOS: % inh.
[4] = without SOS, read-out: Rho-A: % inh.
[5] = with SOS, read-out: Rac-1 + SOS: % inh.
[6] = without SOS, read-out: Rac-1: % inh.
[7] = 20 μM, with SOS (Table 7A), read-out: KRas G12D mutant + SOS: % inh.
[8] = 20 μM, without SOS (Table 7A), read-out: KRas G12D mutant: % inh.

| inhibition at 20 µM (KRas G12D mutant; [1]) [%] | inhibition at 20 µM (KRas G12D mutant; [2]) [%] | inhibition at 20 µM (Rho-A; [3]) [%] | inhibition at 20 µM (Rho-A; [4]) [%] | inhibition at 20 µM (Rac-1; [5]) [%] | inhibition at 20 µM (Rac-1; [6]) [%] | inhibition at 20 µM (KRas G12D mutant; [7]) [%] | inhibition at 20 µM (KRas G12D mutant; [8]) [%] | KRas G12C mutant + SOS: % inh. (KRas G12C mutant) | KRas G12C mutant: % inh. (KRas G12C mutant) | KRas Q61H mutant + SOS: % inh. (KRas Q61H mutant) | KRas Q61H mutant: % inh. (KRas Q61H mutant) | KRas wild type + SOS: % inh. (KRas wild type) | KRas wild type % inh. (KRas wild type) | SMILES |
| --- | --- | --- | --- | --- | --- | --- | --- | --- | --- | --- | --- | --- | --- | --- |
|  |  |  |  |  |  | 51 to 75 | 51 to 75 | C (51-75% inhibition) | D (76-100% inhibition) | C (51-75% inhibition) | D (76-100% inhibition) | C (51-75% inhibition) | C (51-75% inhibition) | CO[C@H]1C[C@@H](Nc2nc(-c3nccn3C)nc3sc(C(=O)N4CCOCC4)c(-c4ccccc4)c23)C1 [drawing 922] |
|  |  |  |  |  |  | 51 to 75 | 51 to 75 | C (51-75% inhibition) | C (51-75% inhibition) | C (51-75% inhibition) | C (51-75% inhibition) | C (51-75% inhibition) | C (51-75% inhibition) | COC1CCN(C(=O)c2sc3nc(-c4nccn4C)nc(N[C@H]4C[C@@H](OC)C4)c3c2-c2ccccc2)C1 (stereo partly shown) [drawing 923] |
|  |  |  |  |  |  | 76 to 100 | 76 to 100 | D (76-100% inhibition) | C (51-75% inhibition) | D (76-100% inhibition) | D (76-100% inhibition) | D (76-100% inhibition) | D (76-100% inhibition) | CO[C@H]1CC[C@@H](Nc2nc(-c3nccn3C)nc3sc(C(=O)NC(C)C)c(-c4ccccc4)c23)C1 [drawing 924] |
|  |  |  |  |  |  | 76 to 100 | 76 to 100 | D (76-100% inhibition) | D (76-100% inhibition) | D (76-100% inhibition) | D (76-100% inhibition) | D (76-100% inhibition) | D (76-100% inhibition) | COCCNC(=O)c1sc2nc(-c3nccn3C)nc(N[C@@H]3CC[C@H](OC)C3)c2c1-c1ccccc1 [drawing 925] |
|  |  |  |  |  |  | 51 to 75 | 51 to 75 | D (76-100% inhibition) | D (76-100% inhibition) | D (76-100% inhibition) | D (76-100% inhibition) | C (51-75% inhibition) | C (51-75% inhibition) | CO[C@H]1CC[C@@H](Nc2nc(-c3nccn3C)nc3sc(C(=O)N4CCCC4)c(-c4ccccc4)c23)C1 [drawing 926] |
|  |  |  |  |  |  | 51 to 75 | 76 to 100 | C (51-75% inhibition) | C (51-75% inhibition) | D (76-100% inhibition) | D (76-100% inhibition) | C (51-75% inhibition) | D (76-100% inhibition) | CO[C@H]1CC[C@@H](Nc2nc(-c3nccn3C)nc3sc(C(=O)N4CCOCC4)c(-c4ccccc4)c23)C1 [drawing 927] |

Second part, the compound before the results:

| SMILES | inhibition at 20 µM (KRas G12D mutant; [1]) [%] | inhibition at 20 µM (KRas G12D mutant; [2]) [%] | inhibition at 20 µM (Rho-A; [3]) [%] | inhibition at 20 µM (Rho-A; [4]) [%] | inhibition at 20 µM (Rac-1; [5]) [%] | inhibition at 20 µM (Rac-1; [6]) [%] | inhibition at 20 µM (KRas G12D mutant; [7]) [%] | inhibition at 20 µM (KRas G12D mutant; [8]) [%] | KRas G12C mutant + SOS: % inh. (KRas G12C mutant) | KRas G12C mutant: % inh. (KRas G12C mutant) | KRas Q61H mutant + SOS: % inh. (KRas Q61H mutant) | KRas Q61H mutant: % inh. (KRas Q61H mutant) | KRas wild type + SOS: % inh. (KRas wild type) | KRas wild type % inh. (KRas wild type) |
| --- | --- | --- | --- | --- | --- | --- | --- | --- | --- | --- | --- | --- | --- | --- |
| CCOC1CCN(c2nc(-c3nccn3C)nc3sc(-c4ccn(C)n4)c(-c4ccccc4)c23)C1 (stereo not shown) | 26 to 50 | 26 to 50 | 0 | 26 to 50 | 26 to 50 | 1 to 25 |  |  |  |  |  |  |  |  |
| CO[C@H]1C[C@@H](Nc2nc(-c3nccn3C)nc3sc(-c4ccn(C)n4)c(C)c23)C1 [drawing 914] |  |  |  |  |  |  | 51 to 75 | 51 to 75 | C (51-75% inhibition) | C (51-75% inhibition) | C (51-75% inhibition) | C (51-75% inhibition) | C (51-75% inhibition) | C (51-75% inhibition) |
| CO[C@H]1CC[C@@H](Nc2nc(-c3nccn3C)nc3sc(-c4ccn(C)n4)c(C)c23)C1 [drawing 915] |  |  |  |  |  |  | 51 to 75 | 26 to 50 | D (76-100% inhibition) | C (51-75% inhibition) | D (76-100% inhibition) | C (51-75% inhibition) | D (76-100% inhibition) | C (51-75% inhibition) |
| Cc1c(-c2ccn(C)n2)sc2nc(-c3nccn3C)nc(NCCCS(C)(=O)=O)c12 [drawing 916] |  |  |  |  |  |  | 76 to 100 | 76 to 100 | C (51-75% inhibition) | C (51-75% inhibition) | C (51-75% inhibition) | D (76-100% inhibition) | C (51-75% inhibition) | C (51-75% inhibition) |
| Cc1c(-c2ccn(C)n2)sc2nc(-c3nccn3C)nc(NCCCC(=O)N(C)C)c12 [drawing 917] |  |  |  |  |  |  | 76 to 100 | 51 to 75 | C (51-75% inhibition) | C (51-75% inhibition) | C (51-75% inhibition) | D (76-100% inhibition) | C (51-75% inhibition) | D (76-100% inhibition) |
| Cc1c(-c2ccn(C)n2)sc2nc(-c3nccn3C)nc(NCCOC(=O)N(C)C)c12 [drawing 918] |  |  |  |  |  |  | 76 to 100 | 76 to 100 | C (51-75% inhibition) | D (76-100% inhibition) | D (76-100% inhibition) | C (51-75% inhibition) | D (76-100% inhibition) | D (76-100% inhibition) |
| CO[C@H]1CC[C@@H](Nc2nc(-c3nccn3C)nc3sc(-c4ccn(C(C)C)n4)c(C)c23)C1 [drawing 919] |  |  |  |  |  |  | 51 to 75 | 51 to 75 | D (76-100% inhibition) | C (51-75% inhibition) | D (76-100% inhibition) | D (76-100% inhibition) | D (76-100% inhibition) | D (76-100% inhibition) |
| CO[C@H]1C[C@@H](Nc2nc(-c3nccn3C)nc3sc(C(=O)NC(C)C)c(-c4ccccc4)c23)C1 [drawing 920] |  |  |  |  |  |  | 51 to 75 | 51 to 75 | D (76-100% inhibition) | D (76-100% inhibition) | D (76-100% inhibition) | D (76-100% inhibition) | D (76-100% inhibition) | C (51-75% inhibition) |
| COCCNC(=O)c1sc2nc(-c3nccn3C)nc(N[C@H]3C[C@@H](OC)C3)c2c1-c1ccccc1 [drawing 921] |  |  |  |  |  |  | 51 to 75 | 51 to 75 | D (76-100% inhibition) | D (76-100% inhibition) | D (76-100% inhibition) | D (76-100% inhibition) | C (51-75% inhibition) | D (76-100% inhibition) |
| COCCn1cc(Nc2nc(-c3ccccn3)nc(OC)c2OC)cn1 [drawing 928] | 1 to 25 | 1 to 25 | 0 | 0 | 1 to 25 | 1 to 25 |  |  |  |  |  |  |  |  |
| COc1nc(-c2ccccn2)nc(Nc2cnn(C)c2)c1OC [drawing 929] | 0 | 0 | 1 to 25 | 0 | 0 | 1 to 25 |  |  |  |  |  |  |  |  |
| COCCNc1nc(-c2cn(C)cn2)nc2sc(-c3cc(OC)ccc3Cl)c(-c3ccc(OC)cc3)c12 [drawing 930] | 26 to 50 | 26 to 50 | 26 to 50 | 51 to 75 | 51 to 75 | 51 to 75 |  |  |  |  |  |  |  |  |
| COC1CCN(c2nc(-c3nccn3C)nn3cc(-c4ccccc4)c(-c4ccccc4)c23)C1 (stereo not shown) [drawing 931] | 1 to 25 | 26 to 50 | 26 to 50 | 51 to 75 | 51 to 75 | 26 to 50 |  |  |  |  |  |  |  |  |
| COCCNc1nc(-c2cn(C)cn2)nc2sc(-c3cccc(OC)c3Cl)c(-c3ccc(OC)cc3)c12 [drawing 932] | 26 to 50 | 26 to 50 | 51 to 75 | 51 to 75 | 51 to 75 | 51 to 75 |  |  |  |  |  |  |  |  |
| CC(C)CN(C)C(=O)c1nc(-c2ccccn2)nc(O)c1O [drawing 933] | 26 to 50 | 26 to 50 | 51 to 75 | 26 to 50 | 26 to 50 | 51 to 75 |  |  |  |  |  |  |  |  |
